Data reported in publication PMC10745768, “Stereoselective Synthesis and Antiproliferative Activity of Steviol-Based Diterpene 1,3-Aminoalcohol Regioisomers” (Molecules, 2023).

Experiments:
HeLa cells = assay: MTT antiproliferative assay, HeLa; type: cell-based; settings: Homo sapiens, 72 h, read-out: Growth inhibition (%) ± SEM
Protocol: (§1) The in vitro anticancer effects of the presented compounds were assessed using the standard MTT [3-(4,5-dimethylthiazol2-yl)-2,5-diphenyltetrazolium bromide] assay on the following human cancer cell lines: cervical (HeLa and SiHa), breast (MCF-7 and MDA-MB-231) and ovarian cancer (A2780). The selectivity of the tested compounds was determined on murine embryonal fibroblast cells (NIH/3T3). The utilised cell lines were purchased from the European Collection of Cell Cultures (Salisbury, UK). The cells were cultivated in Eagle’s minimal essential medium supplemented with 10% fetal bovine serum, 1% non-essential amino acids and 1% antibiotic-antimycotic complex (penicillin, streptomycin, amphotericin B) at 37 °C in a humidified atmosphere containing 5% CO2. All media and supplements were purchased from Lonza Group Ltd. (Basel, Switzerland). The cancer cells were seeded into 96-well plates (5000 cells/well) and incubated overnight, and the test compounds were applied in two different concentrations (10 µM and 30 µM) and incubated for another 72 h under cell-culturing conditions. […] After 72 h, 20 µL of the 5 mg/mL MTT solution was added to each well, and the plates were incubated for 4 h. The medium was removed, and the formazan crystals produced by the mitochondrial activity were dissolved in dimethyl sulfoxide (DMSO) via shaking at 37 °C for 30 min. The absorbances were measured at 545 nm using a microplate reader (SPECTROStar Nano, BMG Labtech, Offenburg, Germany). The reference agent was cisplatin, which is a widely used cytotoxic agent. The IC50 values were calculated using sigmoid curve fitting. Two independent experiments were performed with five parallel wells for each condition. Calculations were performed using the GraphPad Prism 9 software (GraphPad Software Inc., San Diego, CA, USA).

SiHa cells = assay: MTT antiproliferative assay, SiHa; type: cell-based; settings: Homo sapiens, 72 h, read-out: Growth inhibition (%) ± SEM
Protocol: as §1

MCF-7 cells = assay: MTT antiproliferative assay, MCF-7; type: cell-based; settings: Homo sapiens, MCF7, 72 h, read-out: Growth inhibition (%) ± SEM; for inhibition at 10 µM: MCF-7, 10 μM; for inhibition at 30 µM: MCF-7, 30 μM
Protocol: as §1

MDA-MB-231 cells = assay: MTT antiproliferative assay, MDA-MB-231; type: cell-based; settings: Homo sapiens, 72 h, read-out: Growth inhibition (%) ± SEM; for inhibition at 10 µM: MDA-MB-231, 10 μM; for inhibition at 30 µM: MDA-MB-231, 30 μM
Protocol: as §1

A2780 cells = assay: MTT antiproliferative assay, A2780; type: cell-based; settings: Homo sapiens, 72 h, read-out: Growth inhibition (%) ± SEM; for inhibition at 10 µM: A2780, 10 μM; for inhibition at 30 µM: A2780, 30 μM
Protocol: as §1

NIH/3T3 fibroblast cells = assay: MTT assay on non-malignant fibroblasts (selectivity); type: cell-based, murine; settings: Mus musculus, NIH3T3, 72 h, read-out: Growth inhibition (%) ± SEM; for inhibition at 10 µM: NIH/3T3, 10 μM; for inhibition at 30 µM: NIH/3T3, 30 μM
Protocol: as §1

Work on COC(=O)[C@]1(C)CCC[C@@]2(C)[C@@H]3CC[C@@]4(CO)C[C@]3(CC[C@@H]21)C[C@H]4NCc1ccccc1 [Compound 8, (4R,4aS,6aR,8R,9R,11aR,11bS)-Methyl 8-(benzylamino)-9-(hydroxymethyl)-4,11b-dimethyltetradecahydro-6a,9-methanocyclohepta[a]naphthalene-4-carboxylate] yielded an inhibition at 10 µM (HeLa cells) of under 20%, an inhibition at 30 µM (HeLa cells) of 97.49 ± 0.52% and an inhibition at 10 µM (SiHa cells) of under 20%. For the same molecule, the inhibition at 30 µM (SiHa cells) was 95.3 ± 1.23%, the inhibition at 10 µM (MCF-7 cells) was 45.4 ± 1.94% and the inhibition at 30 µM (MCF-7 cells) was 98.9 ± 0.18%. For the same molecule, the inhibition at 10 µM (MDA-MB-231 cells) was under 20%, the inhibition at 30 µM (MDA-MB-231 cells) was 97.89 ± 0.66% and the inhibition at 10 µM (A2780 cells) was 20.3 ± 2.05%. For the same molecule, the inhibition at 30 µM (A2780 cells) was 98.25 ± 0.4%, the inhibition at 10 µM (NIH/3T3 fibroblast cells) was 25.7 ± 0.97% and the inhibition at 30 µM (NIH/3T3 fibroblast cells) was 98.27 ± 0.37%.
COC(=O)[C@]1(C)CCC[C@@]2(C)[C@@H]3CC[C@@]4(CO)C[C@]3(CC[C@@H]21)C[C@H]4NCc1ccc(F)cc1 [Compound 9, (4R,4aS,6aR,8R,9R,11aR,11bS)-Methyl 8-((4-fluorobenzyl)amino)-9-(hydroxymethyl)-4,11b-dimethyltetradecahydro-6a,9-methanocyclohepta[a]naphthalene-4-carboxylate] gave an inhibition at 10 µM (HeLa cells) of under 20%, an inhibition at 30 µM (HeLa cells) of 95.35 ± 0.58% and an inhibition at 10 µM (SiHa cells) of under 20%. It also gave an inhibition at 30 µM (SiHa cells) of 86 ± 2.92%, an inhibition at 10 µM (MCF-7 cells) of 79.8 ± 1.59% and an inhibition at 30 µM (MCF-7 cells) of 98.07 ± 0.35%. It also gave an inhibition at 10 µM (MDA-MB-231 cells) of 58 ± 2.59%, an inhibition at 30 µM (MDA-MB-231 cells) of 93.42 ± 0.39% and an inhibition at 10 µM (A2780 cells) of 73.6 ± 2.61%. The inhibition at 30 µM (A2780 cells) was 99.01 ± 0.11%, the inhibition at 10 µM (NIH/3T3 fibroblast cells) was under 20% and the inhibition at 30 µM (NIH/3T3 fibroblast cells) was 93.9 ± 1.94%.
COC(=O)[C@]1(C)CCC[C@@]2(C)[C@@H]3CC[C@@]4(CO)C[C@]3(CC[C@@H]21)C[C@H]4NCc1ccc(OC)cc1 [Compound 10, (4R,4aS,6aR,8R,9R,11aR,11bS)-Methyl 9-(hydroxymethyl)-8-((4-methoxybenzyl)amino)-4,11b-dimethyltetradecahydro-6a,9-methanocyclohepta[a]naphthalene-4-carboxylate] showed an inhibition at 30 µM (HeLa cells) of 97.65 ± 0.64%, an inhibition at 10 µM (SiHa cells) of under 20% and an inhibition at 30 µM (SiHa cells) of 97.61 ± 0.9%. It also gave an inhibition at 10 µM (MCF-7 cells) of 86.5 ± 0.88%, an inhibition at 30 µM (MCF-7 cells) of 100 ± 0.2% and an inhibition at 10 µM (MDA-MB-231 cells) of 78.7 ± 2.63%. The inhibition at 30 µM (MDA-MB-231 cells) was 98.09 ± 0.59%, the inhibition at 10 µM (A2780 cells) was 39 ± 1.87% and the inhibition at 30 µM (A2780 cells) was 98.38 ± 0.51%. It also gave an inhibition at 10 µM (NIH/3T3 fibroblast cells) of 20.3 ± 2.93% and an inhibition at 30 µM (NIH/3T3 fibroblast cells) of 96.6 ± 1.1%.
Molecule COC(=O)[C@]1(C)CCC[C@@]2(C)[C@@H]3CC[C@@]4(CO)C[C@]3(CC[C@@H]21)C[C@H]4NCc1cccc2ccccc12 [Compound 15, (4R,4aS,6aR,8R,9R,11aR,11bS)-Methyl 9-(hydroxymethyl)-4,11b-dimethyl-8-((naphthalen-1-ylmethyl)amino)tetradecahydro-6a,9-methanocyclohepta[a]naphthalene-4-carboxylate] has an inhibition at 10 µM (HeLa cells) of under 20%, an inhibition at 30 µM (HeLa cells) of 94.9 ± 2.04% and an inhibition at 10 µM (SiHa cells) of under 20%. For the same molecule, the inhibition at 30 µM (SiHa cells) was 87.9 ± 1.33%, the inhibition at 10 µM (MCF-7 cells) was 54 ± 3.39% and the inhibition at 30 µM (MCF-7 cells) was 97.43 ± 0.59%. It also gave an inhibition at 10 µM (MDA-MB-231 cells) of 31.3 ± 1.89%, an inhibition at 30 µM (MDA-MB-231 cells) of 94.2 ± 0.98% and an inhibition at 10 µM (A2780 cells) of 89.5 ± 1.76%. The inhibition at 30 µM (A2780 cells) was 99.67 ± 0.49%, the inhibition at 10 µM (NIH/3T3 fibroblast cells) was under 20% and the inhibition at 30 µM (NIH/3T3 fibroblast cells) was 96.5 ± 0.77%.
Molecule CC[C@@H](NC[C@@]12CC[C@@H]3[C@@](CC[C@H]4[C@@]3(C)CCC[C@@]4(C)C(=O)OC)(C[C@H]1O)C2)c1ccccc1 [Compound 24, (4R,4aS,6aR,8R,9S,11aR,11bS)-Methyl 8-hydroxy-4,11b-dimethyl-9-((((R)-1-phenylpropyl)amino)methyl)tetradecahydro-6a,9-methanocyclohepta[a]naphthalene-4-carboxylate] has an inhibition at 10 µM (HeLa cells) of under 20%, an inhibition at 30 µM (HeLa cells) of 96.56 ± 0.88% and an inhibition at 10 µM (SiHa cells) of under 20%. The inhibition at 30 µM (SiHa cells) was 78.1 ± 1.56%, the inhibition at 10 µM (MCF-7 cells) was 34.8 ± 1.99% and the inhibition at 30 µM (MCF-7 cells) was 93.6 ± 0.94%. It also gave an inhibition at 10 µM (MDA-MB-231 cells) of under 20%, an inhibition at 30 µM (MDA-MB-231 cells) of 97.6 ± 1.01% and an inhibition at 10 µM (A2780 cells) of under 20%. It also gave an inhibition at 30 µM (A2780 cells) of 99.28 ± 0.52%, an inhibition at 10 µM (NIH/3T3 fibroblast cells) of 21.8 ± 2.15% and an inhibition at 30 µM (NIH/3T3 fibroblast cells) of 97.69 ± 0.87%.
